Results from article PMC10587436, “A bacterial quorum sensing signal is a potent inhibitor of de novo pyrimidine biosynthesis in the globally abundant Emiliania huxleyi” (Frontiers in Microbiology, 2023).

Legend:
[1] = target: T1, E. huxleyi dihydroorotate dehydrogenase (EhDHODH); test: DCIP colorimetric DHODH activity assay, Morrison tight-binding fit; IC50 […]; format: biochemical, Emiliania huxleyi
T1 construct: ΔN20EhDHODH (first 20 residues truncated, start at residue 21; N-terminal eight-residue histidine tag)

[2] = target: E. huxleyi dihydroorotate dehydrogenase (EhDHODH)

Row | Compound | Ki [1] | IC50 [2]
1 | CCCCCCCc1cc(=O)c2ccccc2[nH]1 [HHQ] | 0.0023 ± 0.0007 µM | 
2 | Cc1c(-c2ccc(-c3ccccc3F)cc2)nc2ccc(F)cc2c1C(=O)O [brequinar] |  | 43 ± 11 µM
